Read-outs that look alike come from different tables or passages of the source.
How the values were obtained:
[1] = target: T1, trypsin-like activity of rabbit muscle 20S proteasome (Oryctolagus cuniculus, UniProt G1SWK8); experiment: In vitro inhibition of 20S proteasome, Boc-LRR-AMC; format: biochemical; conditions: for EC50: purified rabbit 20S proteasome, Boc-LRR-AMC; for inhibition of the trypsin-like activity of the 20S proteasome: under the conditions tested
T1 construct: EC50 Trypsin-like; other: purified rabbit 20S proteasome, Boc-LRR-AMC; other: under the conditions tested
T1 sequence (G1SWK8 1-271): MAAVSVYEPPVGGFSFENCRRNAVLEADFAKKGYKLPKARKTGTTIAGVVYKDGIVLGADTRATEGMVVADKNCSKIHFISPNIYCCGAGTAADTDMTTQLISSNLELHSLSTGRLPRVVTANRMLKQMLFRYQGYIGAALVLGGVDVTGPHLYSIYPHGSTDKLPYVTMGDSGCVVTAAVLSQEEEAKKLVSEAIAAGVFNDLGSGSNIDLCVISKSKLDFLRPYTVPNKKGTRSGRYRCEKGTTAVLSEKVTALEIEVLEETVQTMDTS

[2] = test system: NF-κB-mediated luciferase activity in HEK293 NF-κB/Luc cells; experiment: NF-κB-mediated luciferase reporter gene assay; format: cell-based, human; conditions: for EC50: 6 h TNF-α stimulation; for luciferase activity upon TNF-α stimulation: pretreatment of NF-κB/Luc 293 cells
Procedure, shortened: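 HEK293 cells carrying luciferase under 5×NF-κB sites, in phenol-red free DMEM without G418, pretreated 1 h with compound (8-point half-log series), then stimulated with TNF-α for 6 h. Luciferase activity read as RLU after 10 min with Steady Lite reagent at room temperature.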

[3] = test system: 20S proteasome chymotrypsin-like activity in RPMI 8226 cells; experiment: Chymotrypsin-like activity of 20S proteasomes in treated cells; format: cell-based, human; conditions: 1 hr, mean ± SD, n = 3
Method: RPMI 8226 (ATCC, CCL-155), the human multiple myeloma cell line, was cultured in RPMI 1640 medium supplemented with 2 mM L-glutamine, 100 units/ml penicillin, 100 μg/ml streptomycin, 1 mM sodium pyruvate and 10% heat inactivated fetal bovine serum at 37° C., 5% CO2 and 95% humidified air. […] DMSO was used as the vehicle control at a final concentration of 0.1%. Following 1 hr incubation of RMPI 8226 cells with the compounds, the cells were pelleted by centrifugation at 2,000 rpm for 10 sec at room temperature and washed 3× with ice-cold 1×Dulbecco's Phosphate-Buffered Saline (DPBS, Mediatech, Herndon, Va.). DPBS washed cells were lysed on ice for 15 min in lysis buffer (20 mM HEPES, 0.5 mM EDTA, 0.05% Triton X-100, pH 7.3) supplemented with protease inhibitor cocktail (Roche Diagnostics, Indianapolis, Ind.). Cell debris was pelleted by centrifugation at 14,000 rpm for 10 min, 4° C. and supernatants (=cell lysates) were transferred to a new tube. Protein concentration was determined by the BCA protein assay kit (Pierce Biotechnology, Rockford, Ill.). […] The total amount of protein used for each assay was 20 μg. The final concentration of Suc-LLVY-AMC and DMSO was 20 μM and 0.2%, respectively.

[4] = target: T2, 20S proteasome chymotrypsin-like activity in PC-3 cells (Homo sapiens, UniProt P28074); experiment: as above; format: cell-based; conditions: PC-3, read-out: % inhibition of the chymotrypsin-like activity of 20S proteasomes in PC-3 cell lysates, 1 hr; for inhibition at 0.01 µM: 10 nM; for inhibition at 0.1 µM: 100 nM; for inhibition at 1 µM: 1,000 nM; for inhibition at 10 µM: 10,000 nM
T2 construct: PC-3 (ATCC, CRL-1435), the human prostate cancer cell line; host or cells: PC-3
T2 sequence (P28074 60-263): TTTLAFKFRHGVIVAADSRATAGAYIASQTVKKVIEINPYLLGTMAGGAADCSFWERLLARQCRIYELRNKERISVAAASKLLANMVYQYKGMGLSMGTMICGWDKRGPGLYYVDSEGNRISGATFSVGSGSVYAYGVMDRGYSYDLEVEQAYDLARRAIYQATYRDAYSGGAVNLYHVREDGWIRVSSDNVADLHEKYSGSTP
Method: PC-3 (ATCC, CRL-1435), the human prostate cancer cell line, was cultured in F12K medium supplemented with 2 mM L-glutamine, 100 units/ml penicillin, 100 μg/ml streptomycin and 10% heat inactivated fetal bovine serum at 37° C., 5% CO2 and 95% humidified air. […] DMSO was used as the vehicle control at a final concentration of 0.1%. Following 1 hr incubation of PC-3 cells with the compounds, the cells were washed 3× with ice-cold 1×Dulbecco's Phosphate-Buffered Saline (DPBS, Mediatech, Herndon, Va.). […] Cell debris was pelleted by centrifugation at 14,000 rpm for 10 min, 4° C. and supernatants (=cell lysates) were transferred to a new tube. Protein concentration was determined by the BCA protein assay kit (Pierce Biotechnology, Rockford, Ill.). […] The total amount of protein used for each assay was 20 μg. The final concentration of Suc-LLVY-AMC and DMSO was 20 μM and 0.2%, respectively. Results are presented as the percent inhibition of the 20S proteasome chymotrypsin-like activity relative to the DMSO control.

[5] = Homo sapiens, HEK293, 1 h pretreatment, read-out: EC50

Row | Compound | EC50 [1] [nM] | EC50 ([1]; listed as II-20) [nM] | inhibition of the trypsin-like activity of the 20S proteasome [1] | EC50 ([2]; 1 h pretreatment) [nM] | luciferase activity upon TNF-α stimulation [2] | % inhibition of the chymotrypsin-like activity of 20S proteasomes in RPMI 8226 cell lysates ([3]; 1 nM) [%] | % inhibition of the chymotrypsin-like activity of 20S proteasomes in RPMI 8226 cell lysates ([3]; 5 nM) [%] | % inhibition of the chymotrypsin-like activity of 20S proteasomes in RPMI 8226 cell lysates ([3]; 10 nM) [%] | % inhibition of the chymotrypsin-like activity of 20S proteasomes in RPMI 8226 cell lysates ([3]; 50 nM) [%] | % inhibition of the chymotrypsin-like activity of 20S proteasomes in RPMI 8226 cell lysates ([3]; 100 nM) [%] | % inhibition of the chymotrypsin-like activity of 20S proteasomes in RPMI 8226 cell lysates ([3]; 500 nM) [%] | % inhibition of the chymotrypsin-like activity of 20S proteasomes in RPMI 8226 cell lysates ([3]; 1,000 nM) [%] | % inhibition of the chymotrypsin-like activity of 20S proteasomes in RPMI 8226 cell lysates ([3]; 10,000 nM) [%] | inhibition at 0.01 µM [4] [%] | inhibition at 0.1 µM [4] [%] | inhibition at 1 µM [4] [%] | inhibition at 10 µM [4] [%] | EC50 [2, 5] [nM]
1 | C[C@H]1C(=O)N[C@@]2([C@@H](O)[C@@H]3C=CCCC3)C(=O)O[C@@]12C [Formula II-20] | 321 | 321 | able to inhibit the trypsin-like activity | 849 ± 225 | dose-dependent decrease of luciferase activity | 3 ± 10 | 31 ± 9 | 37 ± 3 | 64 ± 3 | 66±3 | 71 ± 2 | 73 ± 2 | 87 ± 4 | 38 | 57 | 71 | 90 | –
2 | CC[C@H]1C(=O)N[C@@]2([C@@H](O)[C@@H]3C=CCCC3)C(=O)O[C@@]12C [Formula II-17] | – | – | able to inhibit the trypsin-like activity | – | – | 6 ± 6 | 10 ± 5 | 6 ± 6 | 26 ± 5 | 30±4 | 39 ± 3 | 46 ± 4 | 65 ± 5 | 16 | 26 | 49 | 79 | 960 ± 210
3 | C[C@@]12OC(=O)[C@]1([C@@H](O)[C@@H]1C=CCCC1)NC(=O)[C@@H]2CCCl [Formula II-16, Salinosporamide A] | – | – | able to inhibit the trypsin-like activity | – | dose-dependent decrease of luciferase activity | 30 ± 7 | 85±7 | 94 ± 3 | 97 ± 0 | 98 ± 1 | – | – | – | – | – | – | – | ~7
